These are literature values, as cited in US20140243422A1, “METHODS OF TREATING BEHAVIORAL AND PSYCHIATRIC DISORDERS” (ELAN PHARMACEUTICALS, INC., priority 2011, published 2014).

The data set has as its system brain myo-inositol levels. Conditions: bipolar patients, therapeutic doses, within a few days; cited from earlier work.

Molecules are shown by their SMILES.

Consider `O=C([O-])[O-].[Li+].[Li+]` [Lithium, lithium carbonate], for which the “reduction of brain myo-inositol levels” value is on record as ~30%.
